This passage reports IC50 and Kd results from patent US20250332300A1 (priority 2024, published 2025).

Structures can show the parent of a compound that is named as a salt. Where two headings read alike, the source gives them in different places. Starred links: 1 amine or outer side, 2 acyl side, 3 side chain; linkers in the order of their positions; H or OH if unused. Positions of bridges follow the written chain, without caps; N, C: chain ends. Non-standard residues stand in square brackets, D forms with d. Residues, ends and D or L forms follow the SMILES beside them. Triazole bridges read from a SMILES are 1,4-linked. Chains are numbered I, II in the order given. *: point of attachment. DOTA = O=C(O)CN1CCN(CC(=O)O)CCN(CC(=O)*)CCN(CC(=O)O)CC1; Trp(5-OH) = N[C@@H](Cc1c[nH]c2ccc(O)cc12)C(=O)O; NMePhe(4-F) = CN[C@@H](Cc1ccc(F)cc1)C(=O)O; Lys(N3) = [N-]=[N+]=NCCCC[C@H](N)C(=O)O; NMehPhe = CN[C@@H](CCc1ccccc1)C(=O)O; NMeAoc(2) = CCCCCC[C@H](NC)C(=O)O; Aad = N[C@@H](CCCC(=O)O)C(=O)O; Gly(cPr) = N[C@H](C(=O)O)C1CC1; NMeK = CN[C@@H](CCCCN)C(=O)O; NMeDap = CN[C@@H](CN)C(=O)O; NMeC = CN[C@@H](CS)C(=O)O; NMeS = CN[C@@H](CO)C(=O)O; Pra = C#CC[C@H](N)C(=O)O; Dap = NC[C@H](N)C(=O)O; X5 = O=C(C[*:2])[*:1]; Sar = CNCC(=O)O

What all share (assay type): binding
In test [1] the target is T1, mouse HER2 (23-653) (Mus musculus, UniProt P70424). The experiment in a line: TR-FRET competition assay for peptide potency, mouse HER2. To be noted: 0.1 nM mouse HER2, 24 h incubation. More on the design: mouse HER2 (23-653) using a Cy5 labeled peptide as a probe; made in house; host or cells: mammalian cells.
In test [2] the target is T2, human HER2 (23-652) (Homo sapiens, UniProt P04626). The test can be described thus: Surface plasmon resonance (SPR) for assessment of peptide affinity, human HER2. More on the design: towards human HER2 (23-652) and mouse HER2 (23-653); made in house. To be noted: SPR, human HER2 extracellular domain, 25° C., 1:1 binding model; read-out: huHER2-SPR-ONC KD. In short, it runs like this: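 Binding kinetics fitted from sensorgrams with 280 s peptide association then 3000 s dissociation (30 uL/min), using HER2 (23-652) either directly immobilized (SA/CM5) or anti-Fc-captured; 3 M magnesium chloride used for regeneration.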

Test [3] addresses T1, mouse HER2 (23-653). The test can be described thus: Surface plasmon resonance (SPR) for assessment of peptide affinity, mouse HER2. More on the design: mouse HER2 (23-653) using a Cy5 labeled peptide as a probe; made in house. From the text:
Each protein was immobilized either onto a SA sensorchip (Cytiva, BR-1005-31) or CM5 sensorchip (Cytiva, BR-1005-30) to a density of 800-2000 RU.

Test [4] deals with T2, human HER2 (23-652). The experiment in a line: TR-FRET competition assay for peptide potency, human HER2. Also noted: towards human HER2 (23-652) and mouse HER2 (23-653); made in house; host or cells: mammalian cells. To be noted: TR-FRET competition with Cy5 labeled peptide probe, 0.1 nM human HER2, 24 h incubation; read-out: huHER2 TR-FRET IC50. As to the method:
Both proteins containing a His-, Avi-tag and biotin in Nterminus, were expressed in mammalian cells and produced in house. […] Standard assay conditions consist of 20 uL total volume in white 384-well plates (Greiner), in 10 mM HEPES buffer containing 150 mM NaCl, 3 mM EDTA, 0.05% Tween20 and 1% final DMSO. […] The ratiometric FRET assay readout is calculated from the ratio of the raw data of the two distinct fluorescence signals measured in time resolved mode (fluorescence 665 nm/fluorescence 620 nm). IC50 values were calculated with the standard Novartis in-house assay data analysis software (Helios software application, Novartis Institutes for BioMedical Research, unpublished) using the methods described in Comput. Methods. Programs. Biomed. 2006, 82, 31-37 (regression algorithms for nonlinear dose-response curve fitting).

Where [5] appears, read: TR-FRET competition with Cy5 labeled peptide probe, read-out: moHER2 TR-FRET IC50.
The mark [6] stands for this setting: SPR, mouse HER2 extracellular domain, 25° C., 1:1 binding model, read-out: moHER2-SPR-ONC KD.

Consider `CC(=O)N[C@H]1CNC(=O)CSC[C@@H](C(=O)N(C)[C@@H](Cc2ccc(F)cc2)C(N)=O)N(C)C(=O)[C@H](C2CC2)NC(=O)[C@H](Cc2c[nH]c3ccccc23)NC(=O)[C@H](Cc2c[nH]c3ccc(O)cc23)NC(=O)[C@H](CO)N(C)C(=O)[C@H](CCc2ccccc2)N(C)C(=O)[C@H](CO)NC(=O)[C@H](Cc2ccc(O)cc2)NC1=O` [Example A50, (3R,6S,9S,12S,15S,18S,21S,24S,27S)-9-((1H-indol-3-yl)methyl)-27-acetamido-N—((S)-1-amino-3-(4-fluorophenyl)-1-oxopropan-2-yl)-6-cyclopropyl-12-((5-hydroxy-1H-indol-3-yl)methyl)-24-(4-hydroxybenzyl)-15,21-bis(hydroxymethyl)-N,4,16,19-tetramethyl-5,8,11,14,17,20,23,26,30-nonaoxo-18-phenethyl-1-thia-4,7,10,13,16,19,22,25,29-nonaazacyclohentriacontane-3-carboxamide] (Ac-[Dap]YS[NMehPhe][NMeS][Trp(5-OH)]W[Gly(cPr)][NMeC][NMePhe(4-F)]-NH2; linker 1-9 via X5), for which the IC50 on mouse HER2 (23-653) [1] (setting [5]) stood at 430 nM. For the same molecule, the Kd worked out at 117 nM at human HER2 (23-652) [2] and 122 nM at mouse HER2 (23-653) [3] (setting [6]).
`CC(=O)NCCCC[C@H]1C(=O)N[C@@H](Cc2c[nH]c3ccc(O)cc23)C(=O)N[C@@H](Cc2c[nH]c3ccccc23)C(=O)N[C@@H](C2CC2)C(=O)N(C)[C@H](C(=O)N(C)[C@@H](Cc2ccc(F)cc2)C(N)=O)CNC(=O)CC[C@H](N)C(=O)N[C@@H](Cc2ccc(O)cc2)C(=O)N[C@@H](CO)C(=O)N(C)[C@@H](CCc2ccccc2)C(=O)N1C` [Example A32, (3S,6S,9S,12S,15S,18S,21S,24S,27S)-9-((1H-indol-3-yl)methyl)-15-(4-acetamidobutyl)-27-amino-N-((S)-1-amino-3-(4-fluorophenyl)-1-oxopropan-2-yl)-6-cyclopropyl-12-((5-hydroxy-1H-indol-3-yl)methyl)-24-(4-hydroxybenzyl)-21-(hydroxymethyl)-N,4,16,19-tetramethyl-5,8,11,14,17,20,23,26,30-nonaoxo-18-phenethyl-1,4,7,10,13,16,19,22,25-nonaazacyclotriacontane-3-carboxamide TFA salt] gave an IC50 on mouse HER2 (23-653) [1] (moHER2 TR-FRET IC50, TR-FRET competition with Cy5 labeled peptide probe) of 2.6 nM. For the same molecule, the affinity at mouse HER2 (23-653) [3], expressed as Kd, was 2.2 nM.
Regarding `CC(=O)N[C@H]1CCCC(=O)NC[C@@H](C(=O)N(C)[C@@H](Cc2ccc(F)cc2)C(=O)N[C@@H](CCCCNC(=O)CN2CCN(CC(=O)O)CCN(CC(=O)O)CCN(CC(=O)O)CC2)C(N)=O)N(C)C(=O)[C@H]([C@H](C)O)NC(=O)[C@H](Cc2c[nH]c3ccccc23)NC(=O)[C@H](Cc2c[nH]c3ccc(O)cc23)NC(=O)[C@H](CCCCNC(=O)CO)N(C)C(=O)[C@H](CCc2ccccc2)N(C)C(=O)[C@H](CO)NC(=O)[C@H](Cc2ccc(O)cc2)NC1=O` [Example C21], the results for the Kd at human HER2 (23-652) [2] and on mouse HER2 (23-653) [3] (setting [6]) were 0.3 nM and 0.7 nM, respectively.
On to `CC(=O)NCCCC[C@H]1C(=O)N[C@@H](Cc2c[nH]c3ccc(O)cc23)C(=O)N[C@@H](Cc2c[nH]c3ccccc23)C(=O)N[C@@H](C2CC2)C(=O)N(C)[C@H](C(=O)N(C)[C@@H](Cc2ccc(F)cc2)C(=O)N[C@@H](CCCCNC(=O)CC[C@H](C(=O)O)N2CCN(CC(=O)O)CCN(CC(=O)O)CCN(CC(=O)O)CC2)C(N)=O)CNC(=O)CCC[C@H](NC(C)=O)C(=O)N[C@@H](Cc2ccc(O)cc2)C(=O)N[C@@H](CO)C(=O)N(C)[C@@H](CCc2ccccc2)C(=O)N1C` [Example C33], for which, on mouse HER2 (23-653) [3] (setting [6]), the Kd is less than 0.1 nM.
Take `CC(=O)N[C@H]1CCCC(=O)NC[C@@H](C(=O)N(C)[C@@H](Cc2ccc(F)cc2)C(=O)N2CCC[C@H]2C(N)=O)N(C)C(=O)[C@H](C2CC2)NC(=O)[C@H](Cc2c[nH]c3ccccc23)NC(=O)[C@H](Cc2c[nH]c3ccc(O)cc23)NC(=O)[C@H](CO)N(C)C(=O)[C@H](CCc2ccccc2)N(C)C(=O)[C@H](CO)NC(=O)[C@H](Cc2ccc(O)cc2)NC1=O` [Example A26, (3S,6S,9S,12S,15S,18S,21S,24S,27S)-9-((1H-indol-3-yl)methyl)-27-acetamido-N-((S)-1-((S)-2-carbamoylpyrrolidin-1-yl)-3-(4-fluorophenyl)-1-oxopropan-2-yl)-6-cyclopropyl-12-((5-hydroxy-1H-indol-3-yl)methyl)-24-(4-hydroxybenzyl)-15,21-bis(hydroxymethyl)-N,4,16,19-tetramethyl-5,8,11,14,17,20,23,26,31-nonaoxo-18-phenethyl-1,4,7,10,13,16,19,22,25-nonaazacyclohentriacontane-3-carboxamide]: the half-inhibitory concentration (IC50) on mouse HER2 (23-653) [1] (setting [5]) turned out to be 13 nM. The values for the Kd at human HER2 (23-652) [2] and at mouse HER2 (23-653) [3] (setting [6]) were 11 nM and 8.4 nM, respectively.
Turning to `CC(=O)NCCCC[C@H]1C(=O)N[C@@H](Cc2c[nH]c3ccc(O)cc23)C(=O)N[C@@H](Cc2c[nH]c3ccccc23)C(=O)N[C@@H]([C@H](C)O)C(=O)N(C)[C@H](C(=O)N(C)[C@@H](Cc2ccc(F)cc2)C(=O)N[C@@H](CCCCNC(=O)N2CCN(CC(=O)O)CC2)C(N)=O)CNC(=O)CC[C@H](NC(=O)CN2CCN(CC(=O)O)CCN(CC(=O)O)CCN(CC(=O)O)CC2)C(=O)N[C@@H](Cc2ccc(O)cc2)C(=O)N[C@@H](CO)C(=O)N(C)[C@@H](CCc2ccccc2)C(=O)N1C` [Example C27], the IC50 on mouse HER2 (23-653) [1] (setting [5]) was found to be 57 nM. In addition, the Kd at mouse HER2 (23-653) [3] (setting [6]) was 54 nM.
For `COCCOCCOCCOCCOCCOCCOCCOCCOCCOCCOCCOCCC(=O)N[C@H]1CCCC(=O)NC[C@@H](C(=O)N(C)[C@@H](Cc2ccc(F)cc2)C(=O)N[C@@H](CCCCNC(=O)CN2CCN(CC(=O)O)CCN(CC(=O)O)CCN(CC(=O)O)CC2)C(N)=O)N(C)C(=O)[C@H](C2CC2)NC(=O)[C@H](Cc2c[nH]c3ccccc23)NC(=O)[C@H](Cc2c[nH]c3ccc(O)cc23)NC(=O)[C@H](CCCCNC(C)=O)N(C)C(=O)[C@H](CCc2ccccc2)N(C)C(=O)[C@H](CO)NC(=O)[C@H](Cc2ccc(O)cc2)NC1=O` [Example C2], the Kd at mouse HER2 (23-653) [3] (setting [6]) is 0.2 nM.
“I: Ac-[Pra][Sar][Sar][Sar][Sar][Sar][Sar][Sar][Sar][Sar][Sar][Sar][Sar][Sar][Sar]K(DOTA)[Sar][Sar][Sar][Sar][Sar][Sar][Sar][Sar][Sar][Sar][Sar][Sar][Sar][Sar][Pra]-NH2 / II: Ac-[Aad]YS[NMehPhe][NMeK](Ac)[Trp(5-OH)]W[Gly(cPr)][NMeDap][NMePhe(4-F)][Lys(N3)]-NH2 / III: Ac-[Aad]YS[NMehPhe][NMeK](Ac)[Trp(5-OH)]W[Gly(cPr)][NMeDap][NMePhe(4-F)][Lys(N3)]-NH2 (triazole I:1-II:11, I:31-III:11; lactam II:1-II:9, III:1-III:9) [Example C4]”: the IC50 was determined as 0.1 nM on human HER2 (23-652) [4] and 0.4 nM on mouse HER2 (23-653) [1] (setting [5]). At human HER2 (23-652) [2], the Kd is less than 0.1 nM.
With `CCCCCC[C@H]1C(=O)N(C)[C@@H](CCCCNC(C)=O)C(=O)N[C@@H](Cc2c[nH]c3ccc(O)cc23)C(=O)N[C@@H](Cc2c[nH]c3ccccc23)C(=O)N[C@@H](C2CC2)C(=O)N(C)[C@H](C(=O)N(C)[C@@H](Cc2ccc(F)cc2)C(N)=O)CNC(=O)CCC[C@H](NC(C)=O)C(=O)N[C@@H](Cc2ccc(O)cc2)C(=O)N[C@@H](CO)C(=O)N1C` [Example A20, (3S,6S,9S,12S,15S,18S,21S,24S,27S)-9-((1H-indol-3-yl)methyl)-27-acetamido-15-(4-acetamidobutyl)-N-((S)-1-amino-3-(4-fluorophenyl)-1-oxopropan-2-yl)-6-cyclopropyl-18-hexyl-12-((5-hydroxy-1H-indol-3-yl)methyl)-24-(4-hydroxybenzyl)-21-(hydroxymethyl)-N,4,16,19-tetramethyl-5,8,11,14,17,20,23,26,31-nonaoxo-1,4,7,10,13,16,19,22,25-nonaazacyclohentriacontane-3-carboxamide] (Ac-[Aad]YS[NMeAoc(2)][NMeK](Ac)[Trp(5-OH)]W[Gly(cPr)][NMeDap][NMePhe(4-F)]-NH2; lactam 1-9), the IC50 on mouse HER2 (23-653) [1] (setting [5]) came to 4.7 nM. Besides, the Kd at mouse HER2 (23-653) [3] (setting [6]) is 2.5 nM.
